Assay results: patent publication US4141986A, “Antibiotics 890A2 and 890A5” (Merck & Co., Inc., priority 1977, dated 1979)

System: Salmonella schottmuellari MB-2837
Assay: In vivo protection of intraperitoneally infected mice
Settings: ip, at the time of infection and again 6 hours later; sample of 59 units/ml.; survival data of the seventh day
Protocol: In determining the in vivo activity, antibiotic 890A2 is dissolved in 0.15M NaCl, 0.01M sodium phosphate, pH 7.0, and diluted with water to provide five fourfold concentrations of drug for testing. Female white Swiss mice, averaging about 21 g. in weight, were infected intraperitoneally with the test organism suspended in broth. The numbers of organisms injected were determined by standard plate-count techniques. At the time of infection and again 6 hours later, certain of the mice were treated intraperitoneally with the antibiotic. Five mice were used for each concentration of drug tested. An additional two mice, not infected, were treated with the antibiotic to determine whether the amount of agent injected was toxic. Controls of five mice for each of several dilutions of the infecting culture were included in each test in order to calculate the numbers of organisms that were lethal to 50% of the infected, untreated mice (LD50). This calculation was made using survival data of the seventh day after infection, at which time the amount of drug that should protect 50% of the infected mice (ED50) also was calculated.
All animals receiving this challenge and not treated with antibiotic died within 48 hours of the infection. The efficacy of antibiotic 890A2, having a potency of 59 units/ml., against Salmonella schottmuellari MB-2837 is set forth below: […]

CC(=O)NC=CSC1=C(C(=O)O)N2C(=O)C(C(C)O)C2C1 (stereo not shown) [Antibiotic 890A2]
ED50 × 2 doses: 19 Units
